Experimental data as given in ChEMBL document CHEMBL3994662, “In vivo instability of platensimycin and platencin: Synthesis and biological evaluation of urea- and carbamate-platensimycin” (Bioorg Med Chem, 2017).
Blank lines part the entries; values can stand above or below the compound they belong to.

How the values were obtained:
[1] = Drug uptake in C57Bl/6 mouse adipose tissue at 10 mg/kg, iv administered as single dose measured after 60 mins by LC-MS/MS analysis; format: ADME, organism-based; details: in vivo, 1 h
Mus musculus [2] = experiment: AUC (0 to 8 hrs) in C57Bl/6 mouse at 10 mg/kg, po administered as single dose via gavage by LC-MS/MS analysis; format: ADME, organism-based; design: time < 8 hr, dose 10 mg/kg, route oral; details: in vivo
[3] = Elimination half life in C57Bl/6 mouse at 3 mg/kg, iv administered as single dose by LC-MS/MS analysis; format: ADME, organism-based; details: in vivo, read-out: beta t1/2 (converted)
Lung [4] = experiment: In vivo stability in C57Bl/6 mouse lung assessed as compound hydrolysis at 10 mg/kg, iv administered as single dose measured after 60 mins by LC-MS/MS analysis; format: ADME, organism-based; details: 1 h
[5] = Observed clearance in C57Bl/6 mouse at 3 mg/kg, iv administered as single dose by LC-MS/MS analysis; format: ADME, organism-based; details: in vivo
Brain = experiment: In vivo stability in C57Bl/6 mouse brain assessed as compound hydrolysis at 10 mg/kg, iv administered as single dose measured after 60 mins by LC-MS/MS analysis; format: ADME, organism-based; details: 1 h
[6] = Ratio of drug level in C57Bl/6 mouse muscle to plasma at 10 mg/kg, iv administered as single dose measured after 60 mins by LC-MS/MS analysis; format: ADME, organism-based, Muscle tissue/plasma
Kidney [7] = experiment: In vivo stability in C57Bl/6 mouse kidney assessed as compound hydrolysis at 10 mg/kg, iv administered as single dose measured after 60 mins by LC-MS/MS analysis; format: ADME, organism-based; details: 1 h
[8] = Oral bioavailability in C57Bl/6 mouse at 10 mg/kg administered as single dose via gavage by LC-MS/MS analysis; format: ADME, organism-based; details: in vivo
Liver [9] = experiment: In vivo stability in C57Bl/6 mouse liver assessed as compound hydrolysis at 10 mg/kg, iv administered as single dose measured after 60 mins by LC-MS/MS analysis; format: ADME, organism-based; details: 1 h
[10] = Ratio of drug level in C57Bl/6 mouse kidney to plasma at 10 mg/kg, iv administered as single dose measured after 60 mins by LC-MS/MS analysis; format: ADME, organism-based
Lung [11] = experiment: Drug uptake in C57Bl/6 mouse lung at 10 mg/kg, iv administered as single dose measured after 60 mins by LC-MS/MS analysis; format: ADME, organism-based; details: in vivo, 1 h
[12] = Cmax in C57Bl/6 mouse at 10 mg/kg, po administered as single dose via gavage by LC-MS/MS analysis; format: ADME, organism-based; design: dose 10 mg/kg, route oral; details: in vivo
[13] = Ratio of drug level in C57Bl/6 mouse liver to plasma at 10 mg/kg, iv administered as single dose measured after 60 mins by LC-MS/MS analysis; format: ADME, organism-based
[14] = In vivo stability in C57Bl/6 mouse adipose tissue assessed as compound hydrolysis at 10 mg/kg, iv administered as single dose measured after 60 mins by LC-MS/MS analysis; format: ADME, organism-based; details: 1 h
Kidney [15] = experiment: Drug uptake in C57Bl/6 mouse kidney at 10 mg/kg, iv administered as single dose measured after 60 mins by LC-MS/MS analysis; format: ADME, organism-based; details: in vivo, 1 h
[16] = Cmax in C57Bl/6 mouse at 3 mg/kg, iv administered as single dose by LC-MS/MS analysis; format: ADME, organism-based; design: dose 3 mg/kg, route intravenous; details: in vivo
[17] = In vivo stability in C57Bl/6 mouse urine assessed as compound hydrolysis at 10 mg/kg, iv administered as single dose measured after 60 mins by LC-MS/MS analysis; format: ADME, organism-based; details: 1 h
[18] = Elimination half life in C57Bl/6 mouse at 10 mg/kg, po administered as single dose via gavage by LC-MS/MS analysis; format: ADME, organism-based; details: in vivo, read-out: beta t1/2 (converted)
Mus musculus [19] = experiment: AUC (0 to 8 hrs) in C57Bl/6 mouse at 3 mg/kg, iv administered as single dose by LC-MS/MS analysis; format: ADME, organism-based; design: dose 3 mg/kg, time < 8 hr, route intravenous; details: in vivo
[20] = In vivo stability in C57Bl/6 mouse muscle assessed as compound hydrolysis at 10 mg/kg, iv administered as single dose measured after 60 mins by LC-MS/MS analysis; format: ADME, organism-based, Muscle tissue; details: 1 h
[21] = Drug uptake in C57Bl/6 mouse muscle at 10 mg/kg, iv administered as single dose measured after 60 mins by LC-MS/MS analysis; format: ADME, organism-based, Muscle tissue; details: in vivo, 1 h
[22] = Ratio of drug level in C57Bl/6 mouse lung to plasma at 10 mg/kg, iv administered as single dose measured after 60 mins by LC-MS/MS analysis; format: ADME, organism-based
Liver [23] = experiment: Drug uptake in C57Bl/6 mouse liver at 10 mg/kg, iv administered as single dose measured after 60 mins by LC-MS/MS analysis; format: ADME, organism-based; details: in vivo, 1 h
Plasma [24] = experiment: Drug uptake in C57Bl/6 mouse plasma at 10 mg/kg, iv administered as single dose measured after 60 mins by LC-MS/MS analysis; format: ADME, organism-based; details: in vivo, 1 h
[25] = Volume of distribution in C57Bl/6 mouse at 3 mg/kg, iv administered as single dose by LC-MS/MS analysis; format: ADME, organism-based; details: in vivo
Plasma [26] = experiment: In vivo stability in C57Bl/6 mouse plasma assessed as compound hydrolysis at 10 mg/kg, iv administered as single dose measured after 60 mins by LC-MS/MS analysis; format: ADME, organism-based; details: 1 h
Staphylococcus aureus = experiment: Antibacterial activity against Staphylococcus aureus ATCC 25923 after 18 hrs by broth dilution method; format: functional; details: ATCC 25923, 18 h
Micrococcus luteus = experiment: Antibacterial activity against Micrococcus luteus ATCC 9431 after 18 hrs by broth dilution method; format: functional; details: ATCC 9431, 18 h
[27] = Drug level in C57Bl/6 mouse urine at 10 mg/kg, iv administered as single dose measured after 60 mins by LC-MS/MS analysis; format: ADME, organism-based; details: mouse, in vivo, 1 h
Mus musculus [28] = experiment: Cmax in C57Bl/6 mouse assessed as platensimycin ML12 level at 10 mg/kg, iv administered as single dose by LC-MS/MS analysis; format: ADME, organism-based; design: dose 10 mg/kg, route intravenous; details: in vivo
Mus musculus [29] = experiment: Elimination half life in C57Bl/6 mouse assessed as platensimycin ML12 level at 10 mg/kg, iv administered as single dose by LC-MS/MS analysis; format: ADME, organism-based; details: in vivo
[30] = Cmax in C57Bl/6 mouse at 10 mg/kg, iv administered as single dose by LC-MS/MS analysis; format: ADME, organism-based; design: dose 10 mg/kg, route intravenous; details: in vivo
[31] = Elimination half life in C57Bl/6 mouse at 10 mg/kg, iv administered as single dose by LC-MS/MS analysis; format: ADME, organism-based; details: in vivo, read-out: beta t1/2 (converted)
[32] = Volume of distribution in C57Bl/6 mouse at 10 mg/kg, iv administered as single dose by LC-MS/MS analysis; format: ADME, organism-based; details: in vivo
[33] = Observed clearance in C57Bl/6 mouse at 10 mg/kg, iv administered as single dose by LC-MS/MS analysis; format: ADME, organism-based; details: in vivo
Mus musculus [34] = experiment: AUC (0 to 8 hrs) in C57Bl/6 mouse assessed as platensimycin ML12 level at 10 mg/kg, iv administered as single dose by LC-MS/MS analysis; format: ADME, organism-based; design: dose 10 mg/kg, time < 8 hr, route intravenous; details: in vivo
Mus musculus [35] = experiment: AUC (0 to 8 hrs) in C57Bl/6 mouse at 10 mg/kg, iv administered as single dose by LC-MS/MS analysis; format: ADME, organism-based; design: dose 10 mg/kg, time < 8 hr, route intravenous; details: in vivo

Drug uptake [1]: Not Active
AUC (Mus musculus [2]): 2.3 µM·h
half-life [3]: 13.2 min
Stability (Lung [4]): Stable
clearance [5]: 23 mL/min/kg
Stability (Brain): Stable
Kp at 1 h [6]: 0.1
Stability (Kidney [7]): Unstable
bioavailability [8]: 10%
Stability (Liver [9]): Unstable
Kp at 1 h [10]: 1.4
Drug uptake (Lung [11]): Active
Cmax [12]: 4 µM
Kp at 1 h [13]: 3.8
Stability [14]: Stable
Drug uptake (Kidney [15]): Active
Cmax [16]: 11 µM
Stability [17]: Unstable
half-life [18]: 78 min
AUC (Mus musculus [19]): 6.8 µM·h
Stability [20]: Stable
Drug uptake [21]: Active
Kp at 1 h [22]: 0.4
Drug uptake (Liver [23]): Active
Drug uptake (Plasma [24]): Active
Vd [25]: 0.46 L/kg
Stability (Plasma [26]): Unstable
SMILES: C=C1C[C@@]23C=CC(=O)[C@@](C)(CCC(=O)Nc4c(O)ccc(C(=O)O)c4O)[C@@H]2C[C@@H]1CC3 [PLATENCIN]

SMILES: C[C@]12C[C@@]34C=CC(=O)[C@@](C)(CCNC(=O)Oc5c(O)ccc(C(=O)O)c5O)[C@@H]3[C@H](C[C@@H]1C4)O2
MIC (Staphylococcus aureus): > 64 µg/mL
Stability (Kidney [7]): Stable
Stability (Liver [9]): Stable
Drug uptake (Kidney [15]): Active
Stability [17]: Stable
MIC (Micrococcus luteus): > 64 µg/mL
Drug uptake [27]: Active
Drug uptake (Liver [23]): Active
Drug uptake (Plasma [24]): Active
Stability (Plasma [26]): Stable

MIC (Staphylococcus aureus): > 64 µg/mL
Stability (Kidney [7]): Stable
Stability (Liver [9]): Stable
Drug uptake (Kidney [15]): Active
Stability [17]: Stable
MIC (Micrococcus luteus): > 64 µg/mL
Drug uptake [27]: Active
Drug uptake (Liver [23]): Active
Drug uptake (Plasma [24]): Active
Stability (Plasma [26]): Stable
SMILES: C[C@]12C[C@@]34C=CC(=O)[C@@](C)(CCNC(=O)Nc5c(O)ccc(C(=O)O)c5O)[C@@H]3[C@H](C[C@@H]1C4)O2

Cmax (Mus musculus [28]): 2.3 µM
beta t1/2 (Mus musculus [29]): 108 min
Cmax [30]: 150 µM
half-life [31]: 45.6 min
Vd [32]: 0.08 L/kg
clearance [33]: 3 mL/min/kg
AUC (Mus musculus [34]): 2.5 µM·h
AUC (Mus musculus [35]): 71 µM·h
SMILES: C[C@@]1(O)C[C@]23C[C@H]1CC[C@H]2[C@]1(C)CCC(=O)Nc2c(O)ccc(c2O)C(=O)S[C@H]2CC(=O)[C@@](C)(CCC(=O)Nc4c(O)ccc(c4O)C(=O)S[C@H]3CC1=O)[C@@H]1CC[C@@H]3C[C@]21C[C@@]3(C)O
